This is an account of results in patent US4725621A, “CL-1957E antibiotic compound and its production” (priority 1986, dated 1988).

Converted amounts (≈) assume the structure as drawn. Where a name gives a salt, the structure may show the parent alone.

One data set is described as follows: solubility in water. It counts as physicochemical. The following applies: lyophilized triethylammonium salt. How it is done:
A cooled solution of triethylamine (2.45 ml, 0.176 mmol) in 7.55 ml of water is added dropwise with stirring to a solution of 100 mg (0.176 mmol) of CL-1957E in 2.5 ml of methanol. The resulting solution is concentrated to a final volume of about 2 ml on a rotary evaporator and then diluted to 40 ml with water. Two-milliliter aliquots of this solution were added to each of several 6-ml vials.

For another data set, the system named is Alcaligenes viscolactis. The data set can be described thus: antimicrobial activity, broth microdilution (Mueller-Hinton broth). In kind it is cell-based. The following applies: culture number 21698, read-out: Minimal Inhibitory Concentration (MIC). How it is done: (§1) The antimicrobial activity of CL-1957E was evaluated using the broth microdilution method. Serial dilutions of CL-1957E were made in Muellar-Hinton broth for bacteria and in yeast extract-peptone-dextrose broth for the fungi.

The subject of the next data set is Bacillus cereus. Described as above. In kind it is cell-based. Conditions: culture number 04810, read-out: Minimal Inhibitory Concentration (MIC). As to the method:
as §1

Another data set concerns Bacillus megaterium. The description is as above. The following applies: Priestia megaterium; culture number 066; read-out: Minimal Inhibitory Concentration (MIC). It counts as cell-based. How it is done:
as §1

For the next data set, the system named is Branhamella catarrhalis. The data set is described as above. The following applies: Moraxella catarrhalis; culture number 03596; read-out: Minimal Inhibitory Concentration (MIC). In kind it is cell-based. As to the method: as §1
The subject of another data set is Escherichia coli. The data set is described as above. It counts as cell-based. Conditions: culture number 04863, read-out: Minimal Inhibitory Concentration (MIC). How it is done: as §1
A further data set has as its system Micrococcus luteus. The description is as above. It counts as cell-based. Conditions: culture number 05064, read-out: Minimal Inhibitory Concentration (MIC). How it is done: as §1
The subject of a further data set is Pseudomonas aeruginosa. The data set is described as above. Conditions: culture number 05111, read-out: Minimal Inhibitory Concentration (MIC). It counts as cell-based. As to the method: as §1
The subject of a further data set is Salmonella typhimurium. Described as above. Conditions: Salmonella enterica, culture number TA1535, read-out: Minimal Inhibitory Concentration (MIC). It counts as cell-based. How it is done: as §1
The test system of another data set is Staphylococcus aureus. Described as above. In kind it is cell-based. Conditions: culture number 02482, read-out: Minimal Inhibitory Concentration (MIC). As to the method:
as §1

In a further data set the test system is Streptococcus faecalis. The data set is described as above. It counts as cell-based. Conditions: Enterococcus faecalis; culture number 05045; read-out: Minimal Inhibitory Concentration (MIC). How it is done:
as §1

In another data set the test system is Streptococcus pneumoniae. The data set is described as above. In kind it is cell-based. Conditions: culture number SV1, read-out: Minimal Inhibitory Concentration (MIC). How it is done:
as §1

Another data set has as its system Streptococcus pyogenes. The description is as above. Conditions: culture number C203, read-out: Minimal Inhibitory Concentration (MIC). It counts as cell-based. How it is done:
as §1

The subject of another data set is Mucor parasiticus. The data set can be described thus: antimicrobial activity, broth microdilution (yeast extract-peptone-dextrose broth). It counts as cell-based. Conditions: culture number M2652, read-out: Minimal Inhibitory Concentration (MIC). How it is done: as §1
The test system of the next data set is Rhizopus japonicus. The description is as above. In kind it is cell-based. Conditions: culture number M1557, read-out: Minimal Inhibitory Concentration (MIC). How it is done: as §1
The next data set has as its system Rhodotorula aurantiaca. The data set is described as above. It counts as cell-based. Conditions: Buckleyzyma aurantiaca; culture number M1508; read-out: Minimal Inhibitory Concentration (MIC). As to the method: as §1
Another data set relates to Saccharomyces cerevisiae. The description is as above. In kind it is cell-based. The following applies: culture number S288, read-out: Minimal Inhibitory Concentration (MIC). How it is done:
as §1

Data set [1] has as its system Schizosaccharomyces pombe. The data set is described as above. It counts as cell-based. Conditions: culture number M1388, read-out: Minimal Inhibitory Concentration (MIC). As to the method: as §1
For another data set, the system named is Torulopsis albida. Described as above. It counts as cell-based. The following applies: Naganishia albida; culture number M1390; read-out: Minimal Inhibitory Concentration (MIC). As to the method: as §1
In another data set the test system is P388 leukemia. The data set can be described thus: in vivo activity against P388 leukemia in mice. Conditions: Days 1-5, P388 inoculated intraperitoneally Day 0. How it is done:
The in vivo activity of CL-1957E against P388 leukemia in mice was assayed using the protocol established in Cancer Chemotherapy Reports, Vol. 3, Part 3, 1-87 (1972). The results of these tests are presented in Table 7 in terms of %T/C values which are the ratios of mean survival times of treated to control animals, expressed as percentages.

The test system of data set [2] is L1210 mouse leukemia cells. The data set can be described thus: in vitro cytotoxicity against L1210 mouse leukemia cells. In kind it is cell-based. The following applies: read-out: ID50 (cytotoxicity). As to the method: (§2) The cytotoxicity of CL-1957E against L1210 mouse leukemia cells and against human colon adenocarcinoma (HCT 8) cells was measured in vitro. The ID50 values appear in Table 8.

Data set [3] relates to human colon adenocarcinoma (HCT 8) cells. In words: in vitro cytotoxicity against human colon adenocarcinoma (HCT 8) cells. In kind it is cell-based. The following applies: read-out: ID50 (cytotoxicity). As to the method: as §2

With `CC(/C=C/C1OC(=O)C=CC1C)=C\C(C)C/C=C/C(C)=C/C(CO)C(=O)C(C)C(O)C(C)C/C(C)=C/C(=O)O` (stereo not shown) [CL-1957E triethylammonium salt], the solubility in water entry in the data set “solubility in water” is given as “soluble in water”.

With `CC(/C=C/C1OC(=O)C=CC1C)=C\C(C)C/C=C/C(C)=C/C(CO)C(=O)C(C)C(O)C(C)C/C(C)=C/C(=O)O` (stereo not shown) [CL-1957E, 19-(3,6-dihydro-3-methyl-6-oxo-2H-pyran-2-yl)-6-hydroxy-9-(hydroxymethyl)-3,5,7,11,15,17-hexamethyl-8-oxo-2,10,12,16,18-nonadecapentaenoic acid], the MIC with Alcaligenes viscolactis is at most 0.46 µg/mL; in the data set on Bacillus cereus it was at most 0.46 µg/mL; in the data set with Bacillus megaterium it was at most 0.46 µg/mL; in the data set with Branhamella catarrhalis it was at most 0.46 µg/mL; with Escherichia coli, over 1000 µg/mL; with Micrococcus luteus, at most 0.46 µg/mL. The MIC in the data set with Pseudomonas aeruginosa was over 1000 µg/mL; in the data set with Salmonella typhimurium, over 1000 µg/mL; in the data set on Staphylococcus aureus, at most 0.46 µg/mL; in the data set with Streptococcus faecalis it was at most 0.46 µg/mL; in the data set with Streptococcus pneumoniae, at most 0.46 µg/mL; in the data set with Streptococcus pyogenes, at most 0.46 µg/mL. The MIC in the data set with Mucor parasiticus was over 1000 µg/mL; in the data set with Rhizopus japonicus, over 1000 µg/mL; in the data set with Rhodotorula aurantiaca, over 1000 µg/mL; in the data set on Saccharomyces cerevisiae, over 1000 µg/mL; in [1], 12.3 µg/mL (≈ 22.7 µM); in the data set on Torulopsis albida it was over 1000 µg/mL. Besides, the results for the “% T/C (ratio of mean survival times of treated to control animals)” value in the data set with P388 leukemia (25 μg/kg/injection), with P388 leukemia (50 μg/kg/injection) and in the data set with P388 leukemia (100 μg/kg/injection) were 130%, 139% and 153%, respectively. In addition, the “% T/C (entry in words: toxicity)” value in the data set with P388 leukemia (200 μg/kg/injection) is reported as “Toxic”. For the same compound, the IC50 came to 0.0034 µg/mL (≈ 0.00626 µM) in [2] and 0.001 µg/mL (≈ 0.00184 µM) in [3].
